Values joined by “and” are separate entries in the source; they are usually repeats but may differ in a detail not shown here. Identical values can stand only once. “Also recorded” adds a separate entry of the source. Like-named read-outs stand apart in the source and are kept apart here.

Assay [1] concerns cultured primary hippocampal neurons. The assay is described as follows: Translation reporter assay: EGFP-αCaMKII 3′ UTR reporter mRNA transfected into neurons. Type of assay: cell-based, rat. For orientation: A reporter such as luciferase makes a cellular process visible.
Assay [2] relates to cultured hippocampal neurons. The experiment in a line: Metabolic pulse labeling (35S-methionine incorporation) in cultured hippocampal neurons. Type of assay: cell-based, rat. To be noted: for Increase in translation levels: hippocampal neuronal cultures, 35S metabolic labeling.
In the next assay the test system is phospho-S6 (S235/S236). The assay is described as follows: Western analysis of S6 phosphorylation. The class given is cell-based, rat. The protocol: (§1) Western analysis. Homogenates were prepared in cold RIPA buffer containing protease inhibitors and phosphatase inhibitors. Hippocampal neurons were homogenized 8 minutes after stimulation. Hippocampal slices were frozen on dry ice 10 minutes after tetanization, and the CA1 and CA3 fields were microdissected and homogenized. Western analysis was performed with rabbit polyclonal antisera against dually-phosphorylated ERK1/2, phospho-S6 (S235/S236), phospho-eIF4E (S209), and phospho-4E-BP (S65) (Cell Signaling). […] Therefore, since 4E-BP2 is the most abundantly expressed 4E-BP in the brain, it is likely that the results reflected 4E-BP2 levels and phosphorylation state. Blots were stripped and reprobed with antisera directed against total ERK1/2, S6, eIF4E, and 4E-BP (Cell Signaling). Results were quantified with ImageJ (NIH), calculated as the ratio of phosphorylated species to […], and then normalized to the untreated control condition Staining of total protein with Ponceau-S confirmed equal loading.

Another assay relates to phospho-eIF4E (S209). The assay is described as follows: Western analysis of eIF4E phosphorylation. Type of assay: cell-based, rat. Here is the method: as §1
Another assay has as its system hippocampal brain slices. The assay is described as follows: Metabolic labeling of newly synthesized proteins in hippocampal brain slices. The class given is cell-based.
For another assay, the system named is phospho-4E-BP (S65). The experiment in a line: Western analysis of 4E-BP phosphorylation. The class given is cell-based, rat. The protocol: as §1
Assay [3] concerns dually-phosphorylated ERK1/2.
For another assay, the system named is hippocampal slices. Type of assay: cell-based, mice.
Setting [4] is: hippocampal cultures, Western Blot.
The mark [5] stands for this setting: cultured hippocampal neurons (FIG. 10), agonist 10 uM or 50 uM.
The mark [6] stands for this setting: hippocampal brain slices (FIG. 9), agonist 10 uM or 50 uM.

Take `NC(CCCP(=O)(O)O)C(=O)O` (centres unmarked) [AP5]: the “Translation of EGFP-αCaMKII-A20 reporter mRNA” value in assay [1] (spontaneous neuronal activity, pretreatment with AP5 (100 μM) and DNQX (10 μM) together) is “significantly inhibited”.

As for `OCC(O)c1ccc(O)c(O)c1` (centres unmarked) [DHPG, 3,4-Dihydroxyphenylglycol], the “Increase in translation levels” value in assay [2] turned out to be 50%+/−20%. The “Increase in phosphorylation of S6” value with phospho-S6 (S235/S236) (setting [4]) stood at 52%+/−18%. Further, the “Increase in phosphorylation of eIF4E” value with phospho-eIF4E (S209) (setting [4]) is reported as 33%+/−3%.

On to `O=[N+]([O-])c1cc2nc(O)c(O)nc2cc1[N+](=O)[O-]` [DNQX], for which, in assay [1], the “Translation of EGFP-αCaMKII-A20 reporter mRNA” value was “significantly inhibited”.

Take `Oc1cc2c(cc1O)C(c1ccccc1)CNCC2` (centres unmarked) [SKF38393]: the “Translation of endogenous neuronal mRNAs (metabolic labeling of newly synthesized proteins)” value (“Translation of endogenous neuronal mRNAs” for short) (in [2] (setting [5]); in the assay with hippocampal brain slices (setting [6])) was “stimulate translation” in each case.

Turning to `N#CC(=C(/N)Sc1ccccc1N)/C(C#N)=C(\N)Sc1ccccc1N` [U0126], in [1], the “Effect of concurrent treatment on stimulated EGFP-αCaMKII-A20 mRNA translation” value is “significantly attenuated the effects of stimulation”; the “Sensitivity of activity-induced reporter mRNA translation to inhibition” value is reported as “persisted after mutation of the CPEs”; the “Translation of EGFP-αCaMKII-A20 reporter mRNA, combined pretreatment” value is “no additional inhibition”. Further, in [2], the “Bulk translation of endogenous transcripts (35S-methionine incorporation)” value was “strongly inhibited”, the “Effect of pretreatment on agonist-induced increases in neuronal protein synthesis” value is recorded as “blocked”, the “Effect on DHPG-induced increase in translation rates” value was “blocked” and the “Effect on dopamine-induced increase in translation” value is “blocked”. Besides, in [2], the “Effect on spaced depolarization-induced increase in translation” value is reported as “blocked”. Further, in the assay on phospho-S6 (S235/S236), the “Effect on DHPG-induced increase in phosphorylation of S6” value was “blocked” and the “Phosphorylation of S6” value is “significantly inhibited; also recorded: significantly reduced”. Moreover, in the assay on phospho-eIF4E (S209), the “Effect on DHPG-induced increase in phosphorylation of eIF4E” value was “blocked” and the “Phosphorylation of eIF4E” value is recorded as “significantly inhibited; also recorded: significantly reduced”. Besides, in the assay with phospho-4E-BP (S65), the “Phosphorylation of 4E-BP” value is given as “significantly inhibited”. Moreover, the “Effect of pretreatment on agonist-induced increases in neuronal protein synthesis” value in the assay on hippocampal brain slices is given as “blocked”. In assay [3], the “ERK phosphorylation (phospho-ERK levels)” value was “entirely abolished” and the “Phosphorylation of ERK” value is “significantly reduced”. The “Translation of endogenous synaptodendritic mRNAs” value with synaptoneurosomes is given as “significantly reduced”.

Consider `COc1ccc(C[C@H]2NC[C@H](O)[C@H]2OC(C)=O)cc1` [anisomycin], for which, in the assay on hippocampal slices, the “Additional decrement in L-LTP” value is “did not produce any additional decrement in L-LTP”; the “Kinetic pattern of L-LTP inhibition” value is on record as “progressive inhibition of L-LTP”; the “L-LTP magnitude at 200 minutes” value was 108±5% and 113±5%.

Regarding `C[N+](C)(C)CCOC(N)=O` [carbachol], the “Translation of endogenous neuronal mRNAs” value (in assay [2] (setting [5]); in the assay on hippocampal brain slices (setting [6])) was “stimulate translation” in each case.

Turning to `NCCc1ccc(O)c(O)c1` [dopamine], the “Increase in translation levels” value in [2] stood at 77%+/−26%.

Regarding `CC(C)NCC(O)c1ccc(O)c(O)c1` (centres unmarked) [isoproteronol], the “Translation of endogenous neuronal mRNAs” value (in assay [2] (setting [5]); with hippocampal brain slices (setting [6])) was “stimulate translation” in each case.

Regarding `CCCN1CCC[C@@H]2Cc3n[nH]cc3C[C@H]21` [quinpirole], the “Translation of endogenous neuronal mRNAs” value (in assay [2]; in the assay on hippocampal brain slices) was “stimulate translation” each time.

On to Sp-cAMPS, for which the “Effect on translation (in words)” value in assay [2] is on record as “increased translation”.

As to actinomycin-D, in the assay with hippocampal slices, the “Additional decrement in L-LTP” value is listed as “did not produce any additional decrement in L-LTP”; the “Kinetic pattern of L-LTP inhibition” value was “distinct, delayed pattern of inhibition”; the “L-LTP magnitude at 60 min. post-tetanization” value is 157±4% and 157±3%; the “L-LTP magnitude at 200 minutes” value was 107±4% and 122±5%. In addition, in the assay with hippocampal slices, the “Time after onset of tetanization during which L-LTP magnitude remained indistinguishable from untreated slices” value is listed as “approximately 75 minutes”.

B1: BDNF: brain derived neurotrophic factor; activates trkB (protein, UniProt P23560 19-247, looked up)
Neurotrophic factor BDNF …: APMKEANIRGQGGLAYPGVRTHGTLESVNGPKAGSRGLTSLADTFEHVIEELLDEDQKVRPNEENNKDADLYTSRVMLSSQVPLEPPLLFLLEEYKNYLDAANMSMRVRRHSDPARRGELSVCDSISEWVTAADKKTAVDMSGGTVTVLEKVPVSKGQLKQYFYETKCNPMGYTKEGCRGIDKRHWNSQCRTTQSYVRALTMDSKKRIGWRFIRIDTSCVCTLTIKRGR
In the case of B1, the “Stimulation of EGFP-αCaMKII-A20 mRNA translation” value in assay [1] (100 ng/mL BDNF for 4 hours, 40 μM bicuculline for 8 min., after U0126 preincubation and wash) is “significant increases”.

The record behind these values is patent publication US20100150839A1, “Compositions and Methods for Modulating Cognitive Function” (Massachusetts Institute of Technology, priority 2005, published 2010).
